Assay results taken from ChEMBL document CHEMBL5291721, “A preclinical secondary pharmacology resource illuminates target-adverse drug reaction associations of marketed drugs” (Nat Commun, 2023).

Columns and labels:
[1] = molecular target: T1, Oxysterols receptor LXR-beta (Homo sapiens, UniProt P55055); format: functional
T1 sequence (P55055 whole entry): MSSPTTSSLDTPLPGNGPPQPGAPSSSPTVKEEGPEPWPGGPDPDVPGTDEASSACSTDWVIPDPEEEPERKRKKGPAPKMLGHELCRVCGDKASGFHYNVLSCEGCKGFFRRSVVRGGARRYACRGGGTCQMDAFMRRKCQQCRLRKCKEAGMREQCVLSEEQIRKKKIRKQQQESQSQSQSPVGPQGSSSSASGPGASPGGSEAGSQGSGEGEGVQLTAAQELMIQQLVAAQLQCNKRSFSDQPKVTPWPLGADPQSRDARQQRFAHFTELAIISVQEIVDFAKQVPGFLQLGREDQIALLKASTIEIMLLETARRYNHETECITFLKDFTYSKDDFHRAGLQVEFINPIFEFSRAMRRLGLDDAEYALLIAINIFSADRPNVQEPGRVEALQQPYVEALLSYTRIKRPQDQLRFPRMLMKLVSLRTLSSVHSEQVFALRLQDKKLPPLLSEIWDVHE

[2] = molecular target: T2, Retinoic acid receptor alpha (Homo sapiens, UniProt P10276); format: functional, cell-based
T2 sequence (P10276 whole entry): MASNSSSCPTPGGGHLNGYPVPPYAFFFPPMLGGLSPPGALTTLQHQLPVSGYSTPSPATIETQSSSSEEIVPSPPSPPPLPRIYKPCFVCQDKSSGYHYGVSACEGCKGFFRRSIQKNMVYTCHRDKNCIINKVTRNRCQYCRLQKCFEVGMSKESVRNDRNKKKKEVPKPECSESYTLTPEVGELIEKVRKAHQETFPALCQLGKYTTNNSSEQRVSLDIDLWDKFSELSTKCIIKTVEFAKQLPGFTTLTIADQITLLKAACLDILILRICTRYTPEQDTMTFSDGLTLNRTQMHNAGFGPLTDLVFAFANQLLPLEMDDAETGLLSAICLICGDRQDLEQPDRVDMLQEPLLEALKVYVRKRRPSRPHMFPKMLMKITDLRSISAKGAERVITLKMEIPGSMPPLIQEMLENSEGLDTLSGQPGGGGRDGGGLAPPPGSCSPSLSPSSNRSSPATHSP
Note: assay procedure not described here.

With `CC(C)/N=c1\cc2n(-c3ccc(Cl)cc3)c3ccccc3nc-2cc1Nc1ccc(Cl)cc1` [CLOFAZIMINE] the AC50 [1] was over 30 µM and the AC50 [2] was over 30 µM.
